Results: patent publication US20090275099A1 (priority 2004, published 2009)
Like-named read-outs stand apart in the source and are kept apart here.

What was measured:
[1] = molecular target: F1F0-ATPase (Bos taurus, UniProt P13621+P32876); test: off-rate measurements, recovery of ATP synthesis of SMPs after dilution; format: biochemical, bovine
Method: Inhibition of Na,K-ATPases with oligomycin is time-dependent and results from a slow rate of dissociation from the enzyme (0.05 s^−1) (see, e.g., Esmann, M. (1991) Biochim. Biophys. Acta 1064, 31-36; herein incorporated by reference in its entirety). Since time-dependent inhibition can have profound effects on the function of the F1F0-ATPase, the off-rate of Bz-423 and oligomycin during ATP synthesis was examined. […] Inhibited SMP suspensions were diluted into buffer and activity was measured over time. Enzymatic activity of the SMPs incubated with Bz-423 had recovered to 90% of control at 10 s, indicating rapid dissociation (see, FIG. 18). In contrast, the activity of the enzyme incubated with oligomycin was only 54% of the uninhibited activity at 10 s, and increased for several minutes after dilution (see, FIG. 18). The time-dependence of the recovery of activity fit to a single exponential yielding an apparent dissociation rate constant for Bz-423>0.3 s^−1. However, dissociation of oligomycin was complex and a portion of the inhibitor dissociated at least 10-fold slower, consistent with a tight-binding, slow-dissociating inhibitor (see, e.g., Morrison, J. F., and Walsh, C. T. (1988) Adv. Enzymol. Relat. Areas Mol. Biol. 61, 201-301; herein incorporated by reference in its entirety). Presumably, the constraints of a high-affinity inhibitor dissociating from the membrane embedded proton channel presented a significant barrier for dissociation resulting in a slow off-rate.
Off-rate measurements. Rate of inhibition of ATP synthesis was measured as described above with the following changes. A 20 μL aliquot of SMPs (1 mg mL^−1) in synthesis buffer (with 10 mM K2HPO4) was added to each well of a 96-well plate containing 2.5 μL of 100× drug (14 μM Bz-423 and 35 nM oligomycin, final) or DMSO vehicle control. The drug was diluted out by adding 200 μL of synthesis buffer to each well. Substratecoupling mixture (25 μL with 1 mM ADP) was added to each well at the indicated time point and the rate of NADP^+ reduction was monitored over time.

[2] = molecular target: T1, bovine serum albumin (BSA) (Bos taurus, UniProt P02769); test: binding to bovine serum albumin in tissue culture media; format: in vitro ADME; conditions: tissue culture media containing 10% (v/v) FBS
T1 construct: from tissue; host or cells: fetal bovine serum in tissue culture media
Method: Like most 1,4-benzodiazepines, Bz-423 binds strongly to bovine serum albumin (BSA), which reduces the effective concentration of drug free in solution. For example, in tissue culture media containing 10% (v/v) fetal bovine serum (FBS), ca. 99% of the drug is bound to BSA. Therefore, cell culture cytotoxicity assays are conducted in media with 2% FBS to reduce binding to BSA and increase the free [Bz-423]. Under these conditions, the dose response-curve is quite sharp such that there is a limited concentration range at which Bz-423 is only partly effective. Since some benzodiazepines are known to have anti-proliferative properties, the effect of Bz-423 at concentrations <ED50 were carefully analyzed and observed that in addition to inducing apoptosis, Bz-423 prevented cell growth after 3 d in culture. In these low serum conditions, the cytotoxic and anti-proliferative effects overlapped making it difficult to study each effect independently. […] While higher amounts of drug may also block proliferation, it caused apoptosis well before the effects on proliferation could be observed.

[3] = system: Ramos B cells; test: cell death of Ramos B cells, propidium iodide exclusion by flow cytometry, 24 h; format: cell-based, human; conditions: Homo sapiens, Ramos, 24 h; read-out: Cell death EC50 (μM), Ramos cells
[4] = system: fibroblasts; test: intracellular ROS (DCF, flow cytometry); format: cell-based, human
From the text: (§1) Foreskin tissue obtained from neonatal circumcisions was used as a source of epidermal keratinocytes and dermal fibroblasts. The use of foreskin tissue in this project was approved by the University of Michigan Institutional Review Board. Epidermal keratinocytes were isolated from foreskin tissue as described previously (see, e.g., Varani J, et al., (1994) J. Clin. Invest. 94:1747-1753; herein incorporated by reference in its entirety). Primary and early passage cells were maintained in Keratinocyte Growth Medium (KGM) (Cambrex Bioscience.). […]
(§2) 2′,7′-dichlorodihydrofluorescin diacetate (DCFH-DA, Molecular Probes, Eugene, Oreg.) was prepared as a 10 mM stock solution in DMSO prior to each use. […] After the indicated treatments, the fluorescence of the oxidized product 2′,7′-dichlorofluorescin (DCF) was monitored by flow cytometry using a FACSCalibur (BD Bioscience, San Diego, Calif.). For each sample, 10,000 events were recorded and the data analyzed to determine median fluorescence intensity.
(§3) Within 1 hour of treatment, Bz-423 increased ROS production in a dose-dependent manner in lymphoid cells. To determine if the anti-proliferative responses to Bz-423 in keratinocytes and fibroblasts similarly involve ROS generation, intracellular ROS levels in Bz-423 treated cells were measured. […]

[5] = system: keratinocytes; test: intracellular ROS (DCF, flow cytometry); format: cell-based, human
From the text: as §1, §2, §3

T1 sequence (P02769 25-607): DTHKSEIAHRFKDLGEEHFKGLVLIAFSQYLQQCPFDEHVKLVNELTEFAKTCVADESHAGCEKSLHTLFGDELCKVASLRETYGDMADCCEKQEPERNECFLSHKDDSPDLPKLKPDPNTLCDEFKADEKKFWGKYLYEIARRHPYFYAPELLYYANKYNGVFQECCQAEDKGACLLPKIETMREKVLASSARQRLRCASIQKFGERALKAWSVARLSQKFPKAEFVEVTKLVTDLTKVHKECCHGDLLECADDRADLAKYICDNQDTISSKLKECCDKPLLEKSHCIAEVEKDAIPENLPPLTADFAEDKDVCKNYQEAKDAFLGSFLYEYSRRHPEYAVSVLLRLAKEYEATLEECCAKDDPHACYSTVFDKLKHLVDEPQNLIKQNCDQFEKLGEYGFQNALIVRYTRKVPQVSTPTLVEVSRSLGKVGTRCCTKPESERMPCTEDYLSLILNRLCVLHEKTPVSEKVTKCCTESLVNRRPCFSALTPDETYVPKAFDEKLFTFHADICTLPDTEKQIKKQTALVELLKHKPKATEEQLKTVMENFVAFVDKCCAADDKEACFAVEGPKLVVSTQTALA

Compound: CN1C(=O)C(Cc2ccc3ccccc3c2)N=C(c2ccc(O)cc2)c2cc(Cl)ccc21 (stereo not drawn) [Bz-423]
- reduction of F1F0-ATPase activity at the concentration produced after dilution ([1]; 1.4 μM Bz-423, 3.5 nM oligomycin): 10%
- activity at 14 µM ([1]; 14 μM Bz-423 or 35 nM oligomycin, read-out: ATP synthesis activity relative to that in the absence of inhibitor): 27%
- enzymatic activity recovered after dilution, % of control ([1]; at 10 s after dilution): 90%
- koff ([1]; read-out: dissociation rate from the enzyme-substrate complex): ~0.2 s⁻¹
- koff ([1]; single exponential fit, read-out: apparent dissociation rate constant): > 0.3 s⁻¹
- drug bound to BSA [2]: ca. 99%
- EC50 [3]: 6.3 µM
- lowest dose with an ROS response [4]: 250 nM
- lowest dose with an ROS response [5]: 250 nM
